Test [1] concerns the target KRAS G12D (Homo sapiens (Human), UniProt P01116+P62937, G12D). As to the kind of experiment: Ras-Raf (BRAF RBD) disruption / FRET / MOA assay, KRAS G12D. Type of test: biochemical. The following applies: Ras-Raf disruption/FRET/MOA assay; class symbols; read-out: KRAS G12D FRET data IC50. The procedure:
(§1) The purpose of this biochemical assay is to measure the ability of test compounds to facilitate ternary complex formation between a nucleotide-loaded Ras isoform and cyclophilin A; the resulting ternary complex disrupts binding to a BRAF^RBD construct, inhibiting Ras signaling through a RAF effector.
(§2) Compound is present in plate wells as a 10-point 3-fold dilution series starting at a final concentration of 30 μM. After incubation at 25° C. for 3 hours, a mixture of Anti-His Eu-W1024 and anti-GST allophycocyanin is then added to assay sample wells at final concentrations of 10 nM and 50 nM, respectively, and the reaction incubated for an additional 1.5 hours. […] Compounds that facilitate disruption of a Ras:RAF complex are identified as those eliciting a decrease in the TR-FRET ratio relative to DMSO control wells.
(§3) This protocol may also be executed substituting other Ras proteins or nucleotides.
(§4) The purpose of this biochemical assay was to measure the ability of test compounds to facilitate ternary complex formation between a nucleotide-loaded K-Ras isoform and Cyclophilin A; the resulting ternary complex disrupts binding to a BRAF^RBD construct, inhibiting K-Ras signaling through a RAF effector. Data is reported as IC50 values.
(§5) Compound was present in plate wells as a 10-point 3-fold dilution series starting at a final concentration of 30 μM. After incubation at 25° C. for 3 hours, a mixture of Anti-His Eu-W1024 and anti-GST allophycocyanin was then added to assay sample wells at final concentrations of 10 nM and 50 nM, respectively, and the reaction incubated for an additional 1.5 hours. […] Compounds that facilitate disruption of a K-Ras:RAF complex were identified as those eliciting a decrease in the TR-FRET ratio relative to DMSO control wells.

Test [2] deals with KRAS G12S (Homo sapiens (Human), UniProt P01116+P62937, G12S). As to the kind of experiment: Ras-Raf (BRAF RBD) disruption / FRET / MOA assay, KRAS G12S. Type of test: biochemical. The following applies: Ras-Raf disruption/FRET/MOA assay; class symbols; read-out: KRAS G12S FRET data IC50. As for the experimental part:
as §1, §2, §3, §4, §5

Each structure is given as a SMILES string. Where only a bound is given, the exact number is not on record here.

The source of these data is patent US11566007B2, “Ras inhibitors” (Revolution Medicines, Inc., priority 2019, dated 2023).

KRAS G12S, sequence (P01116-2 other isoform, or with tags, fused parts or gaps G12S): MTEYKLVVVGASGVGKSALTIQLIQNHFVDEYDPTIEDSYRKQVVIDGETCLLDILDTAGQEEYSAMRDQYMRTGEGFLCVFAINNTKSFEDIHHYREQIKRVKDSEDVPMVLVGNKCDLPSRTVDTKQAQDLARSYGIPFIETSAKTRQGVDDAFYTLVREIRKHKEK
KRAS G12S, sequence (P62937 whole entry): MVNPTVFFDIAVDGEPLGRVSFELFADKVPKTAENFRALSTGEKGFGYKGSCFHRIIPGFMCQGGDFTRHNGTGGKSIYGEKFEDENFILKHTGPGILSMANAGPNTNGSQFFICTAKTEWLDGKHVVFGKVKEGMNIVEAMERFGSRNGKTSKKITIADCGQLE
KRAS G12D, sequence (P01116-2 other isoform, or with tags, fused parts or gaps G12D): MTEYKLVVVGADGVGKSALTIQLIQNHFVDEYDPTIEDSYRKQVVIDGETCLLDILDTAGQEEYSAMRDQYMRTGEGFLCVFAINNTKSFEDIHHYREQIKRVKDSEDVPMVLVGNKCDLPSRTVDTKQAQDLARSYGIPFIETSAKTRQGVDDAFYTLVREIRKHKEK
KRAS G12D, sequence (P62937 whole entry, canonical isoform): as the sequence (P62937 whole entry) above

One may read the IC50 as the concentration that gives 50% inhibition. Turning to `C=CC(=O)N1CC[C@H](C(=O)N(C)[C@H](C(=O)N[C@H]2Cc3cc(O)cc(c3)-c3ccc4c(c3)c(c(-c3cccnc3COC)n4C)CC(C)(C)COC(=O)[C@@H]3CCCN(N3)C2=O)C(C)C)C1` [Example A066], the figures for the IC50 in test [1] and in test [2] were above 10 µM and 1000 to 10000 nM, respectively.
The like results for `C=CC(=O)N1CC(C(=O)N(C)[C@H](C(=O)N[C@H]2Cc3cc(O)cc(c3)-c3ccc4c(c3)c(c(-c3cccnc3COC)n4CC)CC(C)(C)COC(=O)[C@@H]3CCCN(N3)C2=O)C(C)C)C1` (single isomer, unassigned) [Example A070] were, in that order, 1 to 10 µM and 100 to 1000 nM.
For `C=CC(=O)N1CC[C@H](C(=O)N(C)[C@H](C(=O)N[C@H]2Cc3cc(O)cc(c3)-c3ccc4c(c3)c(c(-c3ccccc3[C@@H](C)OC)n4CC)CC(C)(C)COC(=O)[C@@H]3CCCN(N3)C2=O)C(C)C)C1` [Example A029], in that order: 1 to 10 µM and 100 to 1000 nM.
With `C=CC(=O)N1C[C@H](C)[C@H](C(=O)N(C)[C@H](C(=O)N[C@H]2Cc3cc(O)cc(c3)-c3ccc4c(c3)c(c(-c3cccnc3COC)n4CC)CC(C)(C)COC(=O)[C@@H]3CCCN(N3)C2=O)C2CCCC2)C1` [Example A057], the IC50 in test [1] is 1 to 10 µM; in test [2], 100 to 1000 nM.
Consider `C=CC(=O)N1CC[C@H](C(=O)N(C)[C@H](C(=O)N[C@H]2Cc3cc(O)cc(c3)-c3ccc4c(c3)c(c(-c3cccnc3COCC)n4CC)CC(C)(C)COC(=O)[C@@H]3CCCN(N3)C2=O)C(C)C)C1` [Example A044], for which the IC50 in test [1] was 1 to 10 µM; in test [2] it was 100 to 1000 nM.
In the case of `C=CC(=O)N1CC[C@H](C(=O)N(C)[C@H](C(=O)N[C@H]2Cc3cc(O)cc(c3)-c3ccc4c(c3)c(c(-c3ccccc3CN(C)C)n4CC)CC(C)(C)COC(=O)[C@@H]3CCCN(N3)C2=O)C(C)C)C1` [Example A005], the half-maximal inhibitory concentration (IC50) is 1 to 10 µM in test [1] and 100 to 1000 nM in test [2].
For `C=CC(=O)N1CC[C@H](C(=O)N(C)[C@H](C(=O)N[C@H]2Cc3cccc(c3)-c3ccc4c(c3)c(c(-c3ccccc3CCOC)n4CC)CC(C)(C)COC(=O)[C@@H]3CCCN(N3)C2=O)C(C)C)C1` [Example A024], in that order: above 10 µM and above 10000 nM.
Take `C=CC(=O)N1CC[C@H](C(=O)N(C)[C@H](C(=O)N[C@H]2Cc3cc(O)cc(c3)-c3ccc4c(c3)c(c(-c3ccccc3COC)n4CC)CC(C)(C)COC(=O)[C@@H]3CCCN(N3)C2=O)C2CCCC2)C1` [Example A027]: the half-inhibitory concentration (IC50) in test [1] was above 10 µM; in test [2] it was 100 to 1000 nM.
The like results for `C=CC(=O)N1CC[C@H](C(=O)N(C)[C@H](C(=O)N[C@H]2Cc3cc(O)cc(c3)-c3ccc4c(c3)c(c(-c3cnn(C)c3)n4CC)CC(C)(C)COC(=O)[C@@H]3CCCN(N3)C2=O)C(C)C)C1` [Example A099] were, in that order, above 10 µM and 1000 to 10000 nM.
In the case of `C=CC(=O)N1CC[C@H](C(=O)N(C)[C@H](C(=O)N[C@H]2Cc3cc(O)cc(c3)-c3ccc4c(c3)c(c(-c3cncc(CCN(C)C)c3)n4CC)CC(C)(C)COC(=O)[C@@H]3CCCN(N3)C2=O)C(C)C)C1` [Example A081], the concentration for half-maximal inhibition (IC50) in test [1] was above 10 µM; in test [2], 1000 to 10000 nM.
`C=CC(=O)N1CC[C@H](C(=O)N(C)[C@H](C(=O)N[C@H]2Cc3nc(cs3)-c3ccc4c(c3)c(c(-c3cccnc3COC)n4CC)CC(C)(C)COC(=O)[C@@H]3CCCN(N3)C2=O)C(C)C)C1` [Example A094]: the results for the IC50 in test [1] and in test [2] were above 10 µM and above 10000 nM, respectively.
Take `C=CC(=O)N1CCC(C(=O)N(C)[C@H](C(=O)N[C@H]2Cc3cc(O)cc(c3)-c3ccc4c(c3)c(c(-c3ccccc3CCOC)n4CC)CC(C)(C)COC(=O)[C@@H]3CCCN(N3)C2=O)C(C)C)CC1` [Example A014]: the half-maximal inhibitory concentration (IC50) in test [1] was above 10 µM; in test [2] it was 1000 to 10000 nM.
For `CCn1c(-c2ccccc2CN(C)C)c2c3cc(ccc31)-c1cc(O)cc(c1)C[C@H](NC(=O)[C@H](C(C)C)N(C)C(=O)c1ccc(NC(=O)/C=C/CN(C)C)cn1)C(=O)N1CCC[C@H](N1)C(=O)OCC(C)(C)C2` [Example A046], in that order: 1 to 10 µM and above 10000 nM.
With `C=CC(=O)N1CC[C@H](C(=O)N(C)[C@H](C(=O)N[C@H]2Cc3cc(O)cc(c3)-c3ccc4c(c3)c(c(-c3ccc(CN5CCCC5)cc3)n4CC)CC(C)(C)COC(=O)[C@@H]3CCCN(N3)C2=O)C(C)C)C1` [Example A010], the half-maximal inhibitory concentration (IC50) is above 10 µM in test [1] and 1000 to 10000 nM in test [2].
For the compound `C=CC(=O)N1CC[C@@]2(CCN([C@H](C(=O)N[C@H]3Cc4cc(O)cc(c4)-c4ccc5c(c4)c(c(-c4ccccc4CCOC)n5CC)CC(C)(C)COC(=O)[C@@H]4CCCN(N4)C3=O)C(C)C)C2=O)C1` [Example A068], the IC50 in test [1] was above 10 µM; in test [2] it was 1000 to 10000 nM.
`C=CC(=O)N1CC[C@H](C(=O)N(C)[C@H](C(=O)N[C@H]2Cc3cc(O)cc(c3)-c3ccc4c(c3)c(c(-c3ccccc3CCOC)n4CC)CC(C)(C)COC(=O)[C@@H]3CCCN(N3)C2=O)C2CCOCC2)C1` [Example A006]: the half-inhibitory concentration (IC50) in test [1] was above 10 µM; in test [2], 1000 to 10000 nM.
Take `C=CC(=O)N1CC2(CCN([C@H](C(=O)N[C@H]3Cc4cc(O)cc(c4)-c4ccc5c(c4)c(c(-c4ccccc4CCOC)n5CC)CC(C)(C)COC(=O)[C@@H]4CCCN(N4)C3=O)C(C)C)C2=O)C1` [Example A031]: the IC50 in test [1] was above 10 µM; in test [2], 1000 to 10000 nM.
For `C=CC(=O)N1CC[C@H](C(=O)N(C)[C@H](C(=O)N[C@H]2Cc3cc(OC(=O)N(C)CC(=O)O)cc(c3)-c3ccc4c(c3)c(c(-c3ccccc3CCOC)n4CC)CC(C)(C)COC(=O)[C@@H]3CCCN(N3)C2=O)C(C)C)C1` [Example A078], in that order: above 10 µM and above 10000 nM.
With `C=CC(=O)N1CCC(F)(C(=O)N(C)[C@H](C(=O)N[C@H]2Cc3cc(O)cc(c3)-c3ccc4c(c3)c(c(-c3ccccc3CN(C)C)n4CC)CC(C)(C)COC(=O)[C@@H]3CCCN(N3)C2=O)C(C)C)CC1` [Example A020], the IC50 in test [1] is above 10 µM; in test [2] it was 1000 to 10000 nM.
`C=CC(=O)N1CC[C@H](C(=O)N(C)[C@H](C(=O)N[C@H]2Cc3cc(O)cc(c3)-c3ccc4c(c3)c(c(-c3cccnc3COC)n4CC)CC(C)(C)COC(=O)[C@@H]3CCCN(N3)C2=O)C2CCCC2)C1` [Example A055]: the values for the IC50 in test [1] and in test [2] were 1 to 10 µM and 100 to 1000 nM, respectively.
Regarding `C=CC(=O)N1CC[C@H](C(=O)N(C)[C@H](C(=O)N[C@H]2Cc3cc(N)cc(c3)-c3ccc4c(c3)c(c(-c3ccccc3COC)n4CC)CC(C)(C)COC(=O)[C@@H]3CCCN(N3)C2=O)C(C)C)C1` [Example A042], the IC50 in test [1] was above 10 µM; in test [2], above 10000 nM.
For `C=CC(=O)N1CC[C@H](C(=O)N(C)[C@H](C(=O)N[C@H]2Cc3cc(OC(C)=O)cc(c3)-c3ccc4c(c3)c(c(-c3ccccc3CN(C)C)n4CC)CC(C)(C)COC(=O)[C@@H]3CCCN(N3)C2=O)C(C)C)C1` [Example A059], in that order: above 10 µM and above 10000 nM.
Consider `CCn1c(-c2cnccc2COC)c2c3cc(ccc31)-c1cc(O)cc(c1)C[C@H](NC(=O)[C@H](C(C)C)N(C)C(=O)[C@H]1CCN(C(=O)C#CCN(C)C)C1)C(=O)N1CCC[C@H](N1)C(=O)OCC(C)(C)C2` [Example A088], for which the half-inhibitory concentration (IC50) in test [1] lay within 1 to 10 µM; in test [2] it was 100 to 1000 nM.
For `C=CC(=O)N1C[C@H](C)[C@H](C(=O)N(C)[C@H](C(=O)N[C@H]2Cc3cc(O)cc(c3)-c3ccc4c(c3)c(c(-c3ccccc3CN(C)C)n4CC)CC(C)(C)COC(=O)[C@@H]3CCCN(N3)C2=O)C2CCCC2)C1` [Example A043], in that order: 1 to 10 µM and 100 to 1000 nM.
For `CCn1c(-c2cccnc2COC)c2c3cc(ccc31)-c1cc(O)cc(c1)C[C@H](NC(=O)[C@H](C(C)C)N(C)C(=O)C1CN(C(=O)C#CCN(C)C)C1)C(=O)N1CCC[C@H](N1)C(=O)OCC(C)(C)C2` [Example A097], in that order: 1 to 10 µM and 100 to 1000 nM.
For `C=CC(=O)N1CCN(C(=O)N(C)[C@H](C(=O)N[C@H]2Cc3cc(O)cc(c3)-c3ccc4c(c3)c(c(-c3ccccc3CCOC)n4CC)CC(C)(C)COC(=O)[C@@H]3CCCN(N3)C2=O)C(C)C)CC1` [Example A018], in that order: above 10 µM and 1000 to 10000 nM.
For the compound `C=CC(=O)N1CC[C@H](C(=O)N(C)[C@H](C(=O)N[C@H]2Cc3cc(O)cc(c3)-c3ccc4c(c3)c(c(-c3ncccc3COC)n4CC)CC(C)(C)COC(=O)[C@@H]3CCCN(N3)C2=O)C(C)C)C1` [Example A084], the IC50 in test [1] was above 10 µM; in test [2], above 10000 nM.
On to `C=CC(=O)N1CC[C@H](C(=O)N(C)[C@H](C(=O)N[C@H]2Cc3cc(O)cc(c3)-c3ccc4c(c3)c(c(-c3ccc(CN5CC[C@@H](O)C5)cc3)n4CC)CC(C)(C)COC(=O)[C@@H]3CCCN(N3)C2=O)C(C)C)C1` [Examples A001], for which the half-maximal inhibitory concentration (IC50) in test [1] was above 10 µM; in test [2], 1000 to 10000 nM.
